Results published in PMC10648875 (Antimicrobial Agents and Chemotherapy, 2023).
Values after ≈ are worked out from the molar mass of the structure shown. Read-outs that look alike come from different tables or passages of the source.

What was measured:
[1] = test system: PAM4823 producing CTX-M-27; assay: MIC, engineered isogenic strain; type: cell-based, P. aeruginosa; conditions: CTX-M-27, class A; BLIs at fixed 4 µg/mL
[2] = test system: PAM4800 producing GES-19; assay: MIC, engineered isogenic strain; type: cell-based, P. aeruginosa; conditions: GES-19, class A; BLIs at fixed 4 µg/mL
[3] = test system: PAM4801 producing GES-20; assay: MIC, engineered isogenic strain; type: cell-based, P. aeruginosa; conditions: GES-20, class A; BLIs at fixed 4 µg/mL
[4] = test system: PAM4135 producing KPC-2; assay: MIC, engineered isogenic strain; type: cell-based, P. aeruginosa; conditions: KPC-2, class A; BLIs at fixed 4 µg/mL
[5] = test system: PAM4825 producing MIR-1; assay: MIC, engineered isogenic strain; type: cell-based, P. aeruginosa; conditions: MIR-1, class C; BLIs at fixed 4 µg/mL
[6] = test system: PAM4840 producing OXY-6–2; assay: MIC, engineered isogenic strain; type: cell-based, P. aeruginosa; conditions: OXY-6–2, class A; BLIs at fixed 4 µg/mL
[7] = test system: PAM4842 producing PER-2; assay: MIC, engineered isogenic strain; type: cell-based, P. aeruginosa; conditions: PER-2, class A; BLIs at fixed 4 µg/mL
[8] = test system: PAM4744 producing SME-2; assay: MIC, engineered isogenic strain; type: cell-based, P. aeruginosa; conditions: SME-2, class A; BLIs at fixed 4 µg/mL
[9] = test system: PAM4884 producing ADC-181; assay: MIC, engineered isogenic strain; type: cell-based, P. aeruginosa; conditions: ADC-181, class C; BLIs at fixed 4 µg/mL
[10] = test system: PAM4827 producing OXA-1; assay: MIC, engineered isogenic strain; type: cell-based, P. aeruginosa; conditions: OXA-1, class D; BLIs at fixed 4 µg/mL
[11] = test system: PAM4846 producing OXA-9; assay: MIC, engineered isogenic strain; type: cell-based, P. aeruginosa; conditions: OXA-9, class D; BLIs at fixed 4 µg/mL
[12] = test system: PAM4217 producing OXA-48; assay: MIC, engineered isogenic strain; type: cell-based, P. aeruginosa; conditions: OXA-48, class D; BLIs at fixed 4 µg/mL
[13] = test system: PAM4179 producing NDM-1; assay: MIC, engineered isogenic strain; type: cell-based, P. aeruginosa; conditions: NDM-1, class B; BLIs at fixed 4 µg/mL
[14] = test system: PAM4917 producing NDM-7; assay: MIC, engineered isogenic strain; type: cell-based, P. aeruginosa; conditions: NDM-7, class B; BLIs at fixed 4 µg/mL
[15] = test system: PAM4795 producing VIM-1; assay: MIC, engineered isogenic strain; type: cell-based, P. aeruginosa; conditions: VIM-1, class B; BLIs at fixed 4 µg/mL
[16] = test system: PAM4887 producing IMP-1; assay: MIC, engineered isogenic strain; type: cell-based, P. aeruginosa; conditions: IMP-1, class B; BLIs at fixed 4 µg/mL
[17] = test system: PAM4196 producing IMP-13; assay: MIC, engineered isogenic strain; type: cell-based, P. aeruginosa; conditions: IMP-13, class B; BLIs at fixed 4 µg/mL
[18] = test system: PAM4198 producing IMP-15; assay: MIC, engineered isogenic strain; type: cell-based, P. aeruginosa; conditions: IMP-15, class B; BLIs at fixed 4 µg/mL
[19] = test system: PAM4889 producing IMP-26; assay: MIC, engineered isogenic strain; type: cell-based, P. aeruginosa; conditions: IMP-26, class B; BLIs at fixed 4 µg/mL
[20] = test system: PAM4883 producing GIM-1; assay: MIC, engineered isogenic strain; type: cell-based, P. aeruginosa; conditions: GIM-1, class B; BLIs at fixed 4 µg/mL
[21] = test system: PAM4879 producing CcrA; assay: MIC, engineered isogenic strain; type: cell-based, P. aeruginosa; conditions: class B, BLIs at fixed 4 µg/mL
[22] = test system: carbapenem-resistant strains of Enterobacterales with cefepime-taniborbactam MIC >8 µg/mL; assay: MIC testing of CRE with reduced cefepime-taniborbactam susceptibility (Table 6, Fig 1); type: cell-based
Protocol: Isolates were tested for antimicrobial susceptibility using the broth microdilution methodology per CLSI M07 (2018) guidelines ([40]). JMI Laboratories produced frozen-form 96-well panels with cation-adjusted Mueller-Hinton broth as the testing medium. Current CLSI quality assurance practices were followed when performing the susceptibility tests. MIC values were validated by concurrently testing the following CLSI-recommended ([27]) QC reference strains: E. coli NCTC 13353 (CTX-M-15), Klebsiella pneumoniae ATCC BAA-2814 (KPC-3), Klebsiella pneumoniae ATCC BAA-1705 (KPC-2), and K. pneumoniae ATCC 700603 (SHV-18). The inoculum density during susceptibility testing was monitored by bacterial colony counts. Where applicable, QC ranges for tested reference strains were those approved or published by the CLSI ([27]).

[23] = test system: ESBL-producing Enterobacterales; assay: organism not typed; type: cell-based; conditions: for MIC50: read-out: MIC50; for MIC90: read-out: MIC90
[24] = test system: carbapenem-resistant Enterobacterales (subset of 507 isolates); assay: organism not typed; type: cell-based; conditions: xeruborbactam and vaborbactam fixed 8 mg/L, all other BLIs 4 mg/L; for MIC50: read-out: MIC50; for MIC90: read-out: MIC90
[25] = target: T1, VIM-1 (lysate of KP1015) (Pseudomonas aeruginosa, UniProt A0A0F7KYQ8); assay: IC50 of β-lactamase inhibition (imipenem cleavage) in cell lysates; type: biochemical, K. pneumoniae
T1 construct: endogenous in cells; host or cells: K. pneumoniae KP1015

CO/N=C(\C(=O)N[C@@H]1C(=O)N2C(C(=O)[O-])=C(C[N+]3(C)CCCC3)CS[C@H]12)c1csc(N)n1 [FEP, cefepime]
MIC [1]: > 64 µg/mL
MIC [2]: 64 µg/mL (≈ 133 µM)
MIC [3]: 2 µg/mL (≈ 4.16 µM)
MIC [4]: > 64 µg/mL
MIC [5]: 2 µg/mL (≈ 4.16 µM)
MIC [6]: 8 µg/mL (≈ 16.6 µM)
MIC [7]: 64 µg/mL (≈ 133 µM)
MIC [8]: 0.5 µg/mL (≈ 1.04 µM)
MIC [9]: 0.5 µg/mL (≈ 1.04 µM)
MIC [10]: 1 µg/mL (≈ 2.08 µM)
MIC [11]: 2 µg/mL (≈ 4.16 µM)
MIC [12]: 0.5 µg/mL (≈ 1.04 µM)
MIC [13]: > 64 µg/mL
MIC [14]: > 64 µg/mL
MIC [15]: > 64 µg/mL
MIC [16]: 64 µg/mL (≈ 133 µM)
MIC [17]: 16 µg/mL (≈ 33.3 µM)
MIC [18]: 16 µg/mL (≈ 33.3 µM)
MIC [19]: 64 µg/mL (≈ 133 µM)
MIC [20]: 8 µg/mL (≈ 16.6 µM)
MIC [21]: 16 µg/mL (≈ 33.3 µM)
MIC50 [22]: 64 µg/mL
MIC90 [22]: > 64 µg/mL
MIC50 ([22]; All MBL (N = 129)): 64 µg/mL
MIC90 ([22]; All MBL (N = 129)): > 64 µg/mL
MIC50 ([22]; IMP (N = 20)): 32 µg/mL
MIC90 ([22]; IMP (N = 20)): > 64 µg/mL
MIC50 ([22]; KPC and OXA-48 (N = 12)): 64 µg/mL
MIC90 ([22]; KPC and OXA-48 (N = 12)): > 64 µg/mL
MIC50 ([22]; MBL negative (N = 34)): 64 µg/mL
MIC90 ([22]; MBL negative (N = 34)): > 64 µg/mL
MIC50 ([22]; NDN (N = 101)): 64 µg/mL
MIC90 ([22]; NDN (N = 101)): > 64 µg/mL
MIC50 ([22]; Non-CP CRE (N = 22)): 64 µg/mL
MIC90 ([22]; Non-CP CRE (N = 22)): > 64 µg/mL
MIC50 ([22]; VIM (N = 8)): > 64 µg/mL
MIC50 [23]: 16 µg/mL (≈ 33.3 µM)
MIC90 [23]: > 64 µg/mL
MIC50 ([24]; CRE (N = 507)): > 64 µg/mL
MIC90 ([24]; CRE (N = 507)): > 64 µg/mL
MIC50 ([24]; KPC (N = 193)): > 64 µg/mL
MIC90 ([24]; KPC (N = 193)): > 64 µg/mL
MIC50 ([24]; MBL (N = 168)): > 64 µg/mL
MIC90 ([24]; MBL (N = 168)): > 64 µg/mL
MIC50 ([24]; Non-CP CRE (N = 50)): > 64 µg/mL
MIC90 ([24]; Non-CP CRE (N = 50)): > 64 µg/mL
MIC50 ([24]; OXA-48-like (N = 96)): > 64 µg/mL
MIC90 ([24]; OXA-48-like (N = 96)): > 64 µg/mL

C[C@@H](O)[C@H]1C(=O)N2C(C(=O)O)=C(S[C@@H]3CN[C@H](C(=O)N(C)C)C3)[C@H](C)[C@H]12 [MEM, meropenem]
MIC [1]: 0.5 µg/mL (≈ 1.3 µM)
MIC [2]: 1 µg/mL (≈ 2.61 µM)
MIC [3]: 8 µg/mL (≈ 20.9 µM)
MIC [4]: 32 µg/mL (≈ 83.4 µM)
MIC [5]: 0.5 µg/mL (≈ 1.3 µM)
MIC [6]: 0.25 µg/mL (≈ 0.652 µM)
MIC [7]: 0.125 µg/mL (≈ 0.326 µM)
MIC [8]: 8 µg/mL (≈ 20.9 µM)
MIC [9]: 0.125 µg/mL (≈ 0.326 µM)
MIC [10]: ≤ 0.06 µg/mL
MIC [11]: 0.25 µg/mL (≈ 0.652 µM)
MIC [12]: 4 µg/mL (≈ 10.4 µM)
MIC [13]: 32 µg/mL (≈ 83.4 µM)
MIC [14]: 32 µg/mL (≈ 83.4 µM)
MIC [15]: 4 µg/mL (≈ 10.4 µM)
MIC [16]: 4 µg/mL (≈ 10.4 µM)
MIC [17]: 1 µg/mL (≈ 2.61 µM)
MIC [18]: 1 µg/mL (≈ 2.61 µM)
MIC [19]: 8 µg/mL (≈ 20.9 µM)
MIC [20]: 32 µg/mL (≈ 83.4 µM)
MIC [21]: 2 µg/mL (≈ 5.22 µM)
MIC50 [22]: > 64 µg/mL
MIC90 [22]: > 64 µg/mL
MIC50 ([22]; All MBL (N = 129)): > 64 µg/mL
MIC90 ([22]; All MBL (N = 129)): > 64 µg/mL
MIC50 ([22]; IMP (N = 20)): 16 µg/mL
MIC90 ([22]; IMP (N = 20)): 64 µg/mL
MIC50 ([22]; KPC and OXA-48 (N = 12)): 32 µg/mL
MIC90 ([22]; KPC and OXA-48 (N = 12)): > 64 µg/mL
MIC50 ([22]; MBL negative (N = 34)): 16 µg/mL
MIC90 ([22]; MBL negative (N = 34)): > 64 µg/mL
MIC50 ([22]; NDN (N = 101)): > 64 µg/mL
MIC90 ([22]; NDN (N = 101)): > 64 µg/mL
MIC50 ([22]; Non-CP CRE (N = 22)): 16 µg/mL
MIC90 ([22]; Non-CP CRE (N = 22)): 32 µg/mL
MIC50 ([22]; VIM (N = 8)): > 64 µg/mL
MIC50 [23]: ≤ 0.03 µg/mL
MIC90 [23]: 0.06 µg/mL (≈ 0.156 µM)
MIC50 ([24]; CRE (N = 507)): 0.5 µg/mL
MIC90 ([24]; CRE (N = 507)): > 64 µg/mL
MIC50 ([24]; KPC (N = 193)): 16 µg/mL
MIC90 ([24]; KPC (N = 193)): > 64 µg/mL
MIC50 ([24]; MBL (N = 168)): 64 µg/mL
MIC90 ([24]; MBL (N = 168)): > 64 µg/mL
MIC50 ([24]; Non-CP CRE (N = 50)): 4 µg/mL
MIC90 ([24]; Non-CP CRE (N = 50)): 16 µg/mL
MIC50 ([24]; OXA-48-like (N = 96)): 16 µg/mL
MIC90 ([24]; OXA-48-like (N = 96)): 64 µg/mL

NCCN[C@H]1CC[C@H](CC(=O)N[C@H]2Cc3cccc(C(=O)O)c3OB2O)CC1 [Taniborbactam, taniborbactam]
IC50 ([25]; KP1015, VIM-1, imipenem cleavage, read-out: IC50 of β-lactamase inhibition in cell lysates): 190 ± 10 nM

O=C(O)c1c(F)ccc2c1OB(O)[C@@H]1C[C@H]21 [Xeruborbactam, xeruborbactam]
IC50 [25]: 250 ± 20 nM
